Laboratory results reported in US10793568B2, “Hormone receptor modulators for treating metabolic conditions and disorders” (ARDELYX, INC., priority 2016, dated 2020).

Experiments:
[1] = molecular target: ligand binding domain of human FXR (Homo sapiens (Human), UniProt Q96RI1); experiment: FXR ligand binding assay (LanthaScreen TR-FRET, SRC2-2 peptide recruitment); settings: for pEC50: -log EC50, concentration required to produce 50% activation; for Emax: extent of activation relative to GW4064, read-out: % Efficacy
ligand binding domain of human FXR, sequence (Q96RI1 262-486): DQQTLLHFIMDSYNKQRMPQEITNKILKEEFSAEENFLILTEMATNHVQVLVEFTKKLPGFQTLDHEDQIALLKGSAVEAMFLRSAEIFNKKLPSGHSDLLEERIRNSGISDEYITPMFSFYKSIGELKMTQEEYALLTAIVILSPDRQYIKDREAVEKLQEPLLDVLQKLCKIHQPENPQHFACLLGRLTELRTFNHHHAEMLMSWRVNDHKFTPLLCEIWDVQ

[2] = molecular target: human Farnesoid X receptor ligand-binding domain/Gal4 DNA binding domain chimera (Homo sapiens (Human), UniProt Q96RI1); experiment: Cell-based assay of FXR activation (FXR-UAS-bla HEK 293T beta-lactamase reporter); settings: cellular FXR beta-lactamase reporter assay; for Emax: HEK-293T, extent of activation relative to GW4064, read-out: % Efficacy; for EC50: FXR-UAS-bla HEK 293T cells, 16 h, pEC50 = -log EC50
human Farnesoid X receptor ligand-binding domain/Gal4 DNA binding domain chimera, sequence (Q96RI1 262-486, change not shown): as the sequence (Q96RI1 262-486) above
human Farnesoid X receptor ligand-binding domain/Gal4 DNA binding domain chimera, sequence (P04386 1-147 partner): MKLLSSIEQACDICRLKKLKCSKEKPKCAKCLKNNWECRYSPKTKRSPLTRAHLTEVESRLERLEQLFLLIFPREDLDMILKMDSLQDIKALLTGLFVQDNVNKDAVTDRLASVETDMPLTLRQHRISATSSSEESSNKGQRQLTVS
Procedure, shortened: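 Readout is cleavage of the CCF4 FRET substrate (409 nm excitation, blue 447 nm signal) by beta-lactamase, expressed under UAS control after a Gal4–human FXR LBD chimera is activated in HEK 293T cells. Compounds were added as 3-fold dilutions for 16 h at 37 °C in 2% charcoal-stripped FBS medium. Curves were fit to a 3-parameter logistic equation to give pEC50, with % activation relative to GW4064.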

Compound	pEC50 [1]	Emax [1]	Emax [2]	EC50 [2]
O=C(NS(=O)(=O)CC1CCOC1)c1ccc(N2C[C@@H]3C[C@H]2C[C@H]3OCc2c(-c3c(Cl)cccc3Cl)noc2C2CC2)cc1 (stereo partly drawn) [Compound I-186, 4-((1S,4S,5R)-5-((5-cyclopropyl-3-(2,6-dichlorophenyl)isoxazol-4-yl)methoxy)-2-azabicyclo[2.2.1]heptan-2-yl)-N-(((tetrahydrofuran-3-yl)methyl)sulfonyl)benzamide]	8.9	134%	107%	0.158 nM
CN1CCC(S(=O)(=O)NC(=O)c2ccc(N3C[C@@H]4C[C@H]3C[C@H]4OCc3c(-c4c(Cl)cccc4Cl)noc3C3CC3)cc2)CC1 [Compound I-187, 4-((1S,4S,5R)-5-((5-cyclopropyl-3-(2,6-dichlorophenyl)isoxazol-4-yl)methoxy)-2-azabicyclo[2.2.1]heptan-2-yl)-N-((1-methylpiperidin-4-yl)sulfonyl)benzamide]	9.2	156%	104%	10 nM
O=C(NS(=O)(=O)c1cn[nH]c1)c1ccc(N2C[C@@H]3C[C@H]2C[C@H]3OCc2c(-c3c(Cl)cccc3Cl)noc2C2CC2)cc1 [Compound I-188, N-((1H-pyrazol-4-yl)sulfonyl)-4-((1S,4S,5R)-5-((5-cyclopropyl-3-(2,6-dichlorophenyl)isoxazol-4-yl)methoxy)-2-azabicyclo[2.2.1]heptan-2-yl)benzamide]	–	150%	100%	6.31 nM
CC(C)CCS(=O)(=O)NC(=O)c1ccc(N2C[C@@H]3C[C@H]2C[C@H]3OCc2c(-c3c(Cl)cccc3Cl)noc2C2CC2)c(F)c1 [Compound I-190, 4-((1S,4S,5R)-5-((5-cyclopropyl-3-(2,6-dichlorophenyl)isoxazol-4-yl)methoxy)-2-azabicyclo[2.2.1]heptan-2-yl)-3-fluoro-N-(isopentylsulfonyl)benzamide]	8.4	163%	113%	0.0631 nM
CCCCCS(=O)(=O)NC(=O)c1ccc(N2C[C@@H]3C[C@H]2C[C@H]3OCc2c(-c3c(Cl)cccc3Cl)noc2C2CC2)c(F)c1 [Compound I-191, 4-((1S,4S,5R)-5-((5-cyclopropyl-3-(2,6-dichlorophenyl)isoxazol-4-yl)methoxy)-2-azabicyclo[2.2.1]heptan-2-yl)-3-fluoro-N-(pentylsulfonyl)benzamide]	8.4	163%	111%	0.0398 nM
CCCCCCCCS(=O)(=O)NC(=O)c1ccc(N2C[C@@H]3C[C@H]2C[C@H]3OCc2c(-c3c(Cl)cccc3Cl)noc2C2CC2)c(F)c1 [Compound I-192, 4-((1S,4S,5R)-5-((5-cyclopropyl-3-(2,6-dichlorophenyl)isoxazol-4-yl)methoxy)-2-azabicyclo[2.2.1]heptan-2-yl)-3-fluoro-N-(octylsulfonyl)benzamide]	7.9	152%	106%	0.2 nM
CCOCCOCCS(=O)(=O)NC(=O)c1ccc(N2C[C@@H]3C[C@H]2C[C@H]3OCc2c(-c3c(Cl)cccc3Cl)noc2C2CC2)c(F)c1 [Compound I-193, 4-((1S,4S,5R)-5-((5-cyclopropyl-3-(2,6-dichlorophenyl)isoxazol-4-yl)methoxy)-2-azabicyclo[2.2.1]heptan-2-yl)-N-((2-(2-ethoxyethoxy)ethyl)sulfonyl)-3-fluorobenzamide]	8.2	138%	114%	1.58 nM
CCCS(=O)(=O)NC(=O)c1ccc(N2C[C@@H]3C[C@H]2C[C@H]3OCc2c(-c3c(Cl)cccc3Cl)noc2C2CC2)cc1F [Compound I-194, 4-((1S,4S,5R)-5-((5-cyclopropyl-3-(2,6-dichlorophenyl)isoxazol-4-yl)methoxy)-2-azabicyclo[2.2.1]heptan-2-yl)-2-fluoro-N-(propylsulfonyl)benzamide]	9	141%	104%	0.2 nM
O=C(NS(=O)(=O)C1CC1)c1ccc(N2C[C@@H]3C[C@H]2C[C@H]3OCc2c(-c3c(Cl)cccc3Cl)noc2C2CC2)cc1F [Compound I-195, 4-((1S,4S,5R)-5-((5-cyclopropyl-3-(2,6-dichlorophenyl)isoxazol-4-yl)methoxy)-2-azabicyclo[2.2.1]heptan-2-yl)-N-(cyclopropylsulfonyl)-2-fluorobenzamide]	8.8	144%	109%	0.316 nM
O=C(NS(=O)(=O)C1CC1)c1ccc(N2C[C@@H]3C[C@H]2C[C@H]3OCc2c(-c3c(Cl)cccc3Cl)noc2C2(F)CC2)cc1 [Compound I-196, N-(cyclopropylsulfonyl)-4-((1S,4S,5R)-5-((3-(2,6-dichlorophenyl)-5-(1-fluorocyclopropyl)isoxazol-4-yl)methoxy)-2-azabicyclo[2.2.1]heptan-2-yl)benzamide]	8.5	154%	110%	0.794 nM
O=C(NS(=O)(=O)C1CC1)c1ccc(N2C[C@@H]3C[C@H]2C[C@H]3OCc2c(-c3c(Cl)cccc3Cl)noc2C2(F)CC2)c(F)c1 [Compound I-197, N-(cyclopropylsulfonyl)-4-((1S,4S,5R)-5-((3-(2,6-dichlorophenyl)-5-(1-fluorocyclopropyl)isoxazol-4-yl)methoxy)-2-azabicyclo[2.2.1]heptan-2-yl)-3-fluorobenzamide]	8.5	167%	111%	0.501 nM
CCCS(=O)(=O)NC(=O)c1ccc(N2C[C@@H]3C[C@H]2C[C@H]3OCc2c(-c3c(Cl)cccc3Cl)noc2C2(F)CC2)c(F)c1 [Compound I-198, 4-((1S,4S,5R)-5-((3-(2,6-dichlorophenyl)-5-(1-fluorocyclopropyl)isoxazol-4-yl)methoxy)-2-azabicyclo[2.2.1]heptan-2-yl)-3-fluoro-N-(propylsulfonyl)benzamide]	8.5	178%	112%	0.501 nM
O=C(NS(=O)(=O)C1CC1)c1ccc(N2C[C@@H]3C[C@H]2C[C@H]3OC(=O)c2c(-c3c(Cl)cccc3Cl)noc2C2(F)CC2)c(F)c1 [Compound I-199, (1S,4S,5R)-2-(4-((cyclopropylsulfonyl)carbamoyl)-2-fluorophenyl)-2-azabicyclo[2.2.1]heptan-5-yl 3-(2,6-dichlorophenyl)-5-(1-fluorocyclopropyl)isoxazole-4-carboxylate]	7.4	146%	110%	10 nM
CCCS(=O)(=O)NC(=O)c1ccc(N2C[C@@H]3C[C@H]2C[C@H]3OCc2c(-c3ccccc3C(F)(F)F)noc2C2CC2)c(F)c1 [Compound I-200, 4-((1S,4S,5R)-5-((5-cyclopropyl-3-(2-(trifluoromethyl)phenyl)isoxazol-4-yl)methoxy)-2-azabicyclo[2.2.1]heptan-2-yl)-3-fluoro-N-(propylsulfonyl)benzamide]	8.6	215%	110%	0.251 nM
